Assay results: publication PMC11480411, “Mucosal sugars delineate pyrazine vs pyrazinone autoinducer signaling in Klebsiella oxytoca” (Nature Communications, 2024)

Legend:
Experiment in all cases: PRESTO-Tango GPCR screen
Assay type in all cases: cell-based
Details in all cases: 100 µM
GPR160 = biological target: T1, GPR160 (Homo sapiens, UniProt Q9UJ42)
T1 construct: purchased PRESTO-Tango GPCR kit (Roth lab / Addgene)
Summary of the method: (§1)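 HEK293 HTLA line (stable β-arrestin-TEV, tTA-luciferase); receptor-Tango transient transfection, PEI; 20 h compound exposure at 100 μM final; luciferase luminescence; fold vs PBS. Dose curves 10^−4–10^−15 M.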

AVPR1B = biological target: T2, AVPR1B (Homo sapiens, UniProt P47901)
T2 construct: purchased PRESTO-Tango GPCR kit (Roth lab / Addgene)
Summary of the method: as §1

GPR110 = biological target: T3, GPR110 (Homo sapiens, UniProt Q5T601)
T3 construct: purchased PRESTO-Tango GPCR kit (Roth lab / Addgene)
Summary of the method: as §1

OXER1 = biological target: T4, OXER1 (Homo sapiens, UniProt Q8TDS5)
T4 construct: purchased PRESTO-Tango GPCR kit (Roth lab / Addgene)
Summary of the method: as §1

GPR88 = biological target: T5, GPR88 (Homo sapiens, UniProt Q9GZN0)
T5 construct: purchased PRESTO-Tango GPCR kit (Roth lab / Addgene)
Summary of the method: as §1

DRD4 = biological target: T6, DRD4 (Homo sapiens, UniProt P21917)
T6 construct: purchased PRESTO-Tango GPCR kit (Roth lab / Addgene)
Summary of the method: as §1

MC2R = biological target: T7, MC2R (Homo sapiens, UniProt Q01718)
T7 construct: purchased PRESTO-Tango GPCR kit (Roth lab / Addgene)
Summary of the method: as §1

MAS1L = biological target: T8, MAS1L (Homo sapiens, UniProt P35410)
T8 construct: purchased PRESTO-Tango GPCR kit (Roth lab / Addgene)
T8 sequence (P35410 whole entry): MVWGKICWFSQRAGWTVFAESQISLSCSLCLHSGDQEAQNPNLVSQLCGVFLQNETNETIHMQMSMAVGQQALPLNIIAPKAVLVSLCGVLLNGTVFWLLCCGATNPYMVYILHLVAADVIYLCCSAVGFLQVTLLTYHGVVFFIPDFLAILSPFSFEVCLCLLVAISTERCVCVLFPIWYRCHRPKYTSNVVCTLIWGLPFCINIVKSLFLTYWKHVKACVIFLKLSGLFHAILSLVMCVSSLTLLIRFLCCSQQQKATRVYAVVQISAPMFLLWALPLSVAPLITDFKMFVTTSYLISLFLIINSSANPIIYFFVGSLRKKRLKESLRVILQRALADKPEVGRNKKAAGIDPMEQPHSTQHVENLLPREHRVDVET
Summary of the method: as §1

PTGDR = biological target: T9, PTGDR (Homo sapiens, UniProt Q13258)
T9 construct: purchased PRESTO-Tango GPCR kit (Roth lab / Addgene)
Summary of the method: as §1

GPR120 = biological target: T10, GPR120 (Homo sapiens, UniProt Q5NUL3)
T10 construct: purchased PRESTO-Tango GPCR kit (Roth lab / Addgene)
T10 sequence (Q5NUL3 whole entry): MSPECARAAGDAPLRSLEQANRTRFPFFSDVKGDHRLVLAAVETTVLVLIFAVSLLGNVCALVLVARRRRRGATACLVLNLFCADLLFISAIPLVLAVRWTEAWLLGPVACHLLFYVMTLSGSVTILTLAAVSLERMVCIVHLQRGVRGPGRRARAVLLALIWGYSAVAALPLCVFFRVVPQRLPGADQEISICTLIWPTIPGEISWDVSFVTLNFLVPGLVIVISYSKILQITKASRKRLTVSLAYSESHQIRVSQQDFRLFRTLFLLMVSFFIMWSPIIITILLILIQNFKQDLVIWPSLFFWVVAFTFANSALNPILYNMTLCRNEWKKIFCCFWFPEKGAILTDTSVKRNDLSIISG
Summary of the method: as §1

ADRB1 = biological target: T11, ADRB1 (Homo sapiens, UniProt P08588)
T11 construct: purchased PRESTO-Tango GPCR kit (Roth lab / Addgene)
Summary of the method: as §1

F2RL3 = biological target: T12, F2RL3 (Homo sapiens, UniProt Q96RI0)
T12 construct: purchased PRESTO-Tango GPCR kit (Roth lab / Addgene)
Summary of the method: as §1

GPR12 = biological target: T13, GPR12 (Homo sapiens, UniProt P47775)
T13 construct: purchased PRESTO-Tango GPCR kit (Roth lab / Addgene)
Summary of the method: as §1

GPR17 = biological target: T14, GPR17 (Homo sapiens, UniProt Q13304)
T14 construct: purchased PRESTO-Tango GPCR kit (Roth lab / Addgene)
Summary of the method: as §1

GPR20 = biological target: T15, GPR20 (Homo sapiens, UniProt Q99678)
T15 construct: purchased PRESTO-Tango GPCR kit (Roth lab / Addgene)
T15 sequence (Q99678 whole entry): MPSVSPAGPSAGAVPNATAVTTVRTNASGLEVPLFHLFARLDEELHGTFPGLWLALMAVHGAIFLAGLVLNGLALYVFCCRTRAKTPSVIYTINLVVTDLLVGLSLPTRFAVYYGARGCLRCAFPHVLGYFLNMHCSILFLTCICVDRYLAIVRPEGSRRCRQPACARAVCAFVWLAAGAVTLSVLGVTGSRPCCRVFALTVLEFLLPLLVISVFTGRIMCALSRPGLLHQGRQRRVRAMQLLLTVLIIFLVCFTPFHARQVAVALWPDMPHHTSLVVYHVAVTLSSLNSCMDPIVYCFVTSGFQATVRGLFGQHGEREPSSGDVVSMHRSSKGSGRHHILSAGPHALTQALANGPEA
Summary of the method: as §1

PTH1R = biological target: T16, PTH1R (Homo sapiens, UniProt Q03431)
T16 construct: purchased PRESTO-Tango GPCR kit (Roth lab / Addgene)
T16 sequence (Q03431 27-593): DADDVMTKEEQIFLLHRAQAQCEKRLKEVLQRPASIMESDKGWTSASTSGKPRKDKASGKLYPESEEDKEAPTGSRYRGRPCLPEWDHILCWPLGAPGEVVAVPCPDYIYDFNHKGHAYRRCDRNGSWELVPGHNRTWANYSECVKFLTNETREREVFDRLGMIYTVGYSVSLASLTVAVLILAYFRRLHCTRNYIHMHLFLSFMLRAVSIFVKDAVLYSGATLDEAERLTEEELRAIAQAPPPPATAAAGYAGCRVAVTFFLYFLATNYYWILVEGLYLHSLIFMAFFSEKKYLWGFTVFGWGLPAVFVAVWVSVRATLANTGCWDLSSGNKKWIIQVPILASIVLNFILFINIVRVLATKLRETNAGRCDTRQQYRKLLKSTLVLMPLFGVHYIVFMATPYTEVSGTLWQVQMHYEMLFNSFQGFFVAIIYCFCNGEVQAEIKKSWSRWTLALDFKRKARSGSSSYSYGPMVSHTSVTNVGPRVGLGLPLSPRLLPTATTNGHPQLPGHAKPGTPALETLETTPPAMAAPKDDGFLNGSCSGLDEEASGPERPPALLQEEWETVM
Summary of the method: as §1

LPAR6 = biological target: T17, LPAR6 (Homo sapiens, UniProt P43657)
T17 construct: purchased PRESTO-Tango GPCR kit (Roth lab / Addgene)
T17 sequence (P43657 whole entry): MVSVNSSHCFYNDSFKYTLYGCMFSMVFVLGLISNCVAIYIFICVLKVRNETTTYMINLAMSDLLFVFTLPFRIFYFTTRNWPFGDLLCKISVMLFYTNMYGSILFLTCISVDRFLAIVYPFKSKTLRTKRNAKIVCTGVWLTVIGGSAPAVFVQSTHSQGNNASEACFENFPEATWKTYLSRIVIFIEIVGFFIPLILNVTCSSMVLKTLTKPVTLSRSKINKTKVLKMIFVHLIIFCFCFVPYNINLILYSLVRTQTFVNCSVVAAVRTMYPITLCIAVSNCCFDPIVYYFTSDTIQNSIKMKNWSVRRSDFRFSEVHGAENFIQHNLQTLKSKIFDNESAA
Summary of the method: as §1

MCHR2 = biological target: T18, MCHR2 (Homo sapiens, UniProt Q969V1)
T18 construct: purchased PRESTO-Tango GPCR kit (Roth lab / Addgene)
T18 sequence (Q969V1 whole entry): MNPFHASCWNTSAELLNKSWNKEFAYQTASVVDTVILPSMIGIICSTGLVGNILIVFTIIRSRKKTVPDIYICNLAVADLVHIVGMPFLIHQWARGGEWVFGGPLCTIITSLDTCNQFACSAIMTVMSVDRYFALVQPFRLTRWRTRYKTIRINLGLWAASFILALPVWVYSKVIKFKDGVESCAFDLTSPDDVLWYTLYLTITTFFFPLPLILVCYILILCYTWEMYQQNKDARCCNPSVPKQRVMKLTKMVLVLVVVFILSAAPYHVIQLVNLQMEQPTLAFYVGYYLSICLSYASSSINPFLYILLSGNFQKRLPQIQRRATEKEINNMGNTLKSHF
Summary of the method: as §1

GPR148 = biological target: T19, GPR148 (Homo sapiens, UniProt Q8TDV2)
T19 construct: purchased PRESTO-Tango GPCR kit (Roth lab / Addgene)
Summary of the method: as §1

OXTR = biological target: T20, OXTR (Homo sapiens, UniProt P30559)
T20 construct: purchased PRESTO-Tango GPCR kit (Roth lab / Addgene)
Summary of the method: as §1

SSTR2 = biological target: T21, SSTR2 (Homo sapiens, UniProt P30874)
T21 construct: purchased PRESTO-Tango GPCR kit (Roth lab / Addgene)
Summary of the method: as §1

ADRA2A = biological target: T22, ADRA2A (Homo sapiens, UniProt P08913)
T22 construct: purchased PRESTO-Tango GPCR kit (Roth lab / Addgene)
T22 sequence (P08913 whole entry): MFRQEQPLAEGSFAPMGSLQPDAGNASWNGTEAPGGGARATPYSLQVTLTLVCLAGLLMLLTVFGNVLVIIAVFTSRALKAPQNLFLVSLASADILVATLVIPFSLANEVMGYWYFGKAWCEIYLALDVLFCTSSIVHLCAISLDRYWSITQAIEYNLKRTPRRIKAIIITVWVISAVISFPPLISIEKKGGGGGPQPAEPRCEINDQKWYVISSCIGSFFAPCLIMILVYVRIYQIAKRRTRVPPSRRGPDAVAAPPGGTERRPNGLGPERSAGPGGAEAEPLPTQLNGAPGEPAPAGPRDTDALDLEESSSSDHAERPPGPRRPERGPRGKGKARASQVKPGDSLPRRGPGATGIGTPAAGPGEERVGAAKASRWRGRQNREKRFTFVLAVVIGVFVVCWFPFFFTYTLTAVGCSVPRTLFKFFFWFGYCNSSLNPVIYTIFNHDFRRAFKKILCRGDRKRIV
Summary of the method: as §1

HTR7 = biological target: T23, HTR7 (Homo sapiens, UniProt P34969)
T23 construct: purchased PRESTO-Tango GPCR kit (Roth lab / Addgene)
Summary of the method: as §1

CHRM5 = biological target: T24, CHRM5 (Homo sapiens, UniProt P08912)
T24 construct: purchased PRESTO-Tango GPCR kit (Roth lab / Addgene)
Summary of the method: as §1

KISSPEPTIN-R = biological target: T25, KISSPEPTIN-R (Homo sapiens, UniProt Q969F8)
T25 construct: purchased PRESTO-Tango GPCR kit (Roth lab / Addgene)
Summary of the method: as §1

RXFP3 = biological target: T26, RXFP3 (Homo sapiens, UniProt Q9NSD7)
T26 construct: purchased PRESTO-Tango GPCR kit (Roth lab / Addgene)
Summary of the method: as §1

RXFP2 = biological target: T27, RXFP2 (Homo sapiens, UniProt Q8WXD0)
T27 construct: purchased PRESTO-Tango GPCR kit (Roth lab / Addgene)
Summary of the method: as §1

C5A = biological target: T28, C5A (Homo sapiens, UniProt P21730)
T28 construct: purchased PRESTO-Tango GPCR kit (Roth lab / Addgene)
T28 sequence (P21730 whole entry): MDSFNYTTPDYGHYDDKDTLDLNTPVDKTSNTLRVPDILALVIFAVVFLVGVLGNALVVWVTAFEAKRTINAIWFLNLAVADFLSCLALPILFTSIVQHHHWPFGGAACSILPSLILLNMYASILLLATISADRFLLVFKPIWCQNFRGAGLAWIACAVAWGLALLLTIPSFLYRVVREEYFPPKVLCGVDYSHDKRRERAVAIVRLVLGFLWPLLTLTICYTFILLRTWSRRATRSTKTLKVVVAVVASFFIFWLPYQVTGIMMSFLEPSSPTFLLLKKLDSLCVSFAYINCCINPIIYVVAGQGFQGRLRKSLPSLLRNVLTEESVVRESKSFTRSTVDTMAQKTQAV
Summary of the method: as §1

GPR143 = biological target: T29, GPR143 (Homo sapiens, UniProt P51810)
T29 construct: purchased PRESTO-Tango GPCR kit (Roth lab / Addgene)
T29 sequence (P51810 whole entry): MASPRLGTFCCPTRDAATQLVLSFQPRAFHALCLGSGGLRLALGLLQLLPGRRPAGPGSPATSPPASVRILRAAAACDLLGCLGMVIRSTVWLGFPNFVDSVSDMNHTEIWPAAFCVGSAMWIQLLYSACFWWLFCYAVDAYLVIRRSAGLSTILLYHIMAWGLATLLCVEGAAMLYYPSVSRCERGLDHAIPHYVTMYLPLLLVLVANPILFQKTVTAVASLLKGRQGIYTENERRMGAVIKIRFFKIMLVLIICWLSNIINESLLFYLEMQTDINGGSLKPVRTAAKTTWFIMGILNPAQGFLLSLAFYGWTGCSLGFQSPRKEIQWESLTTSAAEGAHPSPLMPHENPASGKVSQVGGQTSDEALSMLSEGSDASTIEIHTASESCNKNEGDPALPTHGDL
Summary of the method: as §1

GPR83 = biological target: T30, GPR83 (Homo sapiens, UniProt Q9NYM4)
T30 construct: purchased PRESTO-Tango GPCR kit (Roth lab / Addgene)
Summary of the method: as §1

SCTR = biological target: T31, SCTR (Homo sapiens, UniProt P47872)
T31 construct: purchased PRESTO-Tango GPCR kit (Roth lab / Addgene)
T31 sequence (P47872 23-440): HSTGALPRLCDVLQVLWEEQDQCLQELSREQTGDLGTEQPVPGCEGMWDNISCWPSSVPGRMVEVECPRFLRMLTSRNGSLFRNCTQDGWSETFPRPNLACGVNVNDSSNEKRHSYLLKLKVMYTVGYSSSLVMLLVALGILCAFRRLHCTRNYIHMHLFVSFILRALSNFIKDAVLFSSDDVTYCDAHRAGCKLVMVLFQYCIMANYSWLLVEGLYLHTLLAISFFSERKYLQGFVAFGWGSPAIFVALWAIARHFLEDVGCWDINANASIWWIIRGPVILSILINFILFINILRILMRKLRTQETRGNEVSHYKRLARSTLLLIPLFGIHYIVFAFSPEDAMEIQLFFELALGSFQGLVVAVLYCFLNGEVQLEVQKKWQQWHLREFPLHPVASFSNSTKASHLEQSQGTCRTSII
Summary of the method: as §1

OXGR1 = biological target: T32, OXGR1 (Homo sapiens, UniProt Q96P68)
T32 construct: purchased PRESTO-Tango GPCR kit (Roth lab / Addgene)
Summary of the method: as §1

GPBA = biological target: T33, GPBA (Homo sapiens, UniProt Q8TDU6)
T33 construct: purchased PRESTO-Tango GPCR kit (Roth lab / Addgene)
Summary of the method: as §1

PTGER1 = biological target: T34, PTGER1 (Homo sapiens, UniProt P34995)
T34 construct: purchased PRESTO-Tango GPCR kit (Roth lab / Addgene)
T34 sequence (P34995 whole entry): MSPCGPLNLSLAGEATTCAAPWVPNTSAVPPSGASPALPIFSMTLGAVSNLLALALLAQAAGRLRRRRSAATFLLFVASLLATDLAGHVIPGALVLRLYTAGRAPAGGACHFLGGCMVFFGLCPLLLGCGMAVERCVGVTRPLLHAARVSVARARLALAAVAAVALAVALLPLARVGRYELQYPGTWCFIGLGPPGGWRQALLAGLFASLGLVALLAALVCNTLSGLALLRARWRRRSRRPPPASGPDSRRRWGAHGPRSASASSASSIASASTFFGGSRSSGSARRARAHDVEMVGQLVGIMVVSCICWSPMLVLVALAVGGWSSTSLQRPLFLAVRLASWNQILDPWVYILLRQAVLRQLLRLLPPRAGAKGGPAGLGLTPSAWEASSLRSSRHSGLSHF
Summary of the method: as §1

F2R = biological target: T35, F2R (Homo sapiens, UniProt P25116)
T35 construct: purchased PRESTO-Tango GPCR kit (Roth lab / Addgene)
T35 sequence (P25116 22-425): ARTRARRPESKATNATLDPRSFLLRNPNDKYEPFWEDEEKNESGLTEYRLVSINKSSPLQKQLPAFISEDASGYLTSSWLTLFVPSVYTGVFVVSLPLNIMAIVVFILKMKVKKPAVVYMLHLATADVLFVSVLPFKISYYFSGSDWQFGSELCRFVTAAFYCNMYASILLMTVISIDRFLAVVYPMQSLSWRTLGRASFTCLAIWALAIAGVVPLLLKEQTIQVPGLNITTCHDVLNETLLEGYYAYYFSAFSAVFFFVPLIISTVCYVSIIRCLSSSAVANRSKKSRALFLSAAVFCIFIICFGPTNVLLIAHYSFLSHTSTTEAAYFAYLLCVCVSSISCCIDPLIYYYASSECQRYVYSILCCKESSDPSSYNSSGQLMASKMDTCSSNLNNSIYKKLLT
Summary of the method: as §1

Structure (SMILES)	GPCR activation (heatmap value) (GPR160)	GPCR activation (heatmap value) (AVPR1B)	GPCR activation (heatmap value) (GPR110)	GPCR activation (heatmap value) (OXER1)	GPCR activation (heatmap value) (GPR88)	GPCR activation (heatmap value) (DRD4)	GPCR activation (heatmap value) (MC2R)	GPCR activation (heatmap value) (MAS1L)	GPCR activation (heatmap value) (PTGDR)	GPCR activation (heatmap value) (GPR120)	GPCR activation (heatmap value) (ADRB1)	GPCR activation (heatmap value) (F2RL3)	GPCR activation (heatmap value) (GPR12)	GPCR activation (heatmap value) (GPR17)	GPCR activation (heatmap value) (GPR20)	GPCR activation (heatmap value) (PTH1R)	GPCR activation (heatmap value) (LPAR6)	GPCR activation (heatmap value) (MCHR2)	GPCR activation (heatmap value) (GPR148)	GPCR activation (heatmap value) (OXTR)	other results
CC(C)Cc1ncc(CCCCNC(=N)N)[nH]c1=O [3-Homo]	0.53	-0.01402	-1.142	0.0005851	-0.7293	-0.04181	-0.5707	0.1505	0.1368	0.1572	0.6163	-0.0006117	0.07278	0.06719	0.638	-0.1159	0.3664	-0.05748	0.1551	0.4883	GPCR activation (heatmap value) (SSTR2): 0.327; GPCR activation (heatmap value) (ADRA2A): -0.8336; GPCR activation (heatmap value) (HTR7): 0.09912; GPCR activation (heatmap value) (CHRM5): -0.008955; GPCR activation (heatmap value) (KISSPEPTIN-R): 1.206; GPCR activation (heatmap value) (RXFP3): 0.07695; GPCR activation (heatmap value) (RXFP2): 0.2908; GPCR activation (heatmap value) (C5A): 0.3516; GPCR activation (heatmap value) (GPR143): -0.07136; GPCR activation (heatmap value) (GPR83): 0.2309; GPCR activation (heatmap value) (SCTR): -0.8565; GPCR activation (heatmap value) (OXGR1): 0.2343; GPCR activation (heatmap value) (GPBA): -0.06085; GPCR activation (heatmap value) (PTGER1): 0.737; GPCR activation (heatmap value) (F2R): -0.4507
CC(C)Cc1ncc(CCCNC(=N)N)[nH]c1=O [compound 3]	0.6688	0.6298	0.3323	-0.9579	-0.2878	0.4609	0.1631	-0.3942	0.8064	0.8927	0.4729	0.3497	0.5588	0.1737	1.634	0.5796	0.5638	-1.212	0.6105	0.1075	GPCR activation (heatmap value) (SSTR2): -0.806; GPCR activation (heatmap value) (ADRA2A): 0.08001; GPCR activation (heatmap value) (HTR7): -0.07329; GPCR activation (heatmap value) (CHRM5): 0.7902; GPCR activation (heatmap value) (KISSPEPTIN-R): 0.3199; GPCR activation (heatmap value) (RXFP3): -0.5079; GPCR activation (heatmap value) (RXFP2): -0.001018; GPCR activation (heatmap value) (C5A): 0.1076; GPCR activation (heatmap value) (GPR143): 0.5685; GPCR activation (heatmap value) (GPR83): -0.04196; GPCR activation (heatmap value) (SCTR): -0.3327; GPCR activation (heatmap value) (OXGR1): -0.2265; GPCR activation (heatmap value) (GPBA): -0.136; GPCR activation (heatmap value) (PTGER1): -0.585; GPCR activation (heatmap value) (F2R): -0.02389
